From ChEMBL document CHEMBL1828583, “Discovery process and pharmacological characterization of a novel dual orexin 1 and orexin 2 receptor antagonist useful for treatment of sleep disorders” (Bioorg Med Chem Lett, 2011)

Key:
Liver microsomes = experiment: Intrinsic clearance in human liver microsomes; type: ADME, Microsome
Orexin receptor type 2 = molecular target: T1, Orexin receptor type 2 (Homo sapiens, UniProt O43614); experiment: Antagonist activity at recombinant human OX2R expressed in CHO cells by FLIPR calcium based functional assay; type: cell-based
T1 sequence (O43614 whole entry): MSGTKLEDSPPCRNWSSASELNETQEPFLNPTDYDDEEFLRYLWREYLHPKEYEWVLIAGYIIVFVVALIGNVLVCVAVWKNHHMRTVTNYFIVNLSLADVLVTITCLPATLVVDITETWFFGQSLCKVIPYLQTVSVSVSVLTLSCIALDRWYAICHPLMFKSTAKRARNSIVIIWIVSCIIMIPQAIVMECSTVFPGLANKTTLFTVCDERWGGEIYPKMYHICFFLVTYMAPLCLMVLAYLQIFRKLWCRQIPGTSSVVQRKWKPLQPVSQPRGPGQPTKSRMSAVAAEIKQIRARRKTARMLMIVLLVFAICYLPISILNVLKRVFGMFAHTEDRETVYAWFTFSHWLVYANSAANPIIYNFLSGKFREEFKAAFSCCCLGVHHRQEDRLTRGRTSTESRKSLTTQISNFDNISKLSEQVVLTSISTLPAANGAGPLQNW

[1] = molecular target: T2, Orexin/Hypocretin receptor type 1 (Homo sapiens, UniProt O43613); experiment: Antagonist activity at recombinant human OX1R expressed in CHO cells by FLIPR calcium based functional assay; type: cell-based
T2 sequence (O43613 whole entry): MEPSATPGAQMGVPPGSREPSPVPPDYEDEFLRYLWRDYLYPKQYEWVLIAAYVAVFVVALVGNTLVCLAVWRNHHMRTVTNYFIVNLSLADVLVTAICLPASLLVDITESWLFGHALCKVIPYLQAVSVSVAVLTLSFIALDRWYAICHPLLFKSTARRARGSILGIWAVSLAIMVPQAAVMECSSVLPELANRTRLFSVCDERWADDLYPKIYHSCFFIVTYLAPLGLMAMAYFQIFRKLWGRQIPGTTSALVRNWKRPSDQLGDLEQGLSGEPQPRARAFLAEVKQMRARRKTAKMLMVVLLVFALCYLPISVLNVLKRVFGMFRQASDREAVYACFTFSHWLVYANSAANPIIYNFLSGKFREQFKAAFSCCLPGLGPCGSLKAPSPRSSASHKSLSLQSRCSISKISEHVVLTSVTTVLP

Rattus norvegicus [2] = experiment: Neurotoxicity in CD rat assessed as impairment of motor coordination at 1 to 10 mg/kg, po by rotarod test in presence of 1 g/kg, ip ethanol; type: toxicity, organism-based; parameters: dose 1-10 mg/kg, route oral; settings: in vivo
Rattus norvegicus [3] = experiment: Neurotoxicity in CD rat assessed as impairment of motor coordination at 1 to 10 mg/kg, po by rotarod test; type: toxicity, organism-based; parameters: dose 1-10 mg/kg, route oral; settings: in vivo

Row | SMILES | CL (Liver microsomes) [mL/min/g] | Ki (Orexin receptor type 2) [nM] | Ki [1] [nM] | Activity (Rattus norvegicus [2]) | Activity (Rattus norvegicus [3])
1 | O=C(c1ccccc1-c1ccccc1)N1CCCCC1CCOc1ccc(F)cc1 (racemic) | > 50 | 20 | 5.01 | – | –
2 | O=C(CC[C@@H]1CCCCN1C(=O)c1ccccc1-c1ccccc1)c1ccccc1 | – | 20 | 10 | – | –
3 | Cc1ccc(-c2nc3ccc(C)cn3c2CC(=O)N(C)C)cc1 [ZOLPIDEM] | – | – | – | Toxic | Toxic
4 | O=C(NC[C@H]1CCCCN1C(=O)c1ccccc1-c1ccccc1)c1ccc(F)cc1 | – | 31.6 | 39.8 | – | –
5 | O=C(c1cccc2ccccc12)N1CCCC[C@H]1CCOc1ccc(F)cc1 | – | 126 | 6.31 | – | –
6 | O=C(C[C@@H]1CCCCN1C(=O)c1ccccc1-c1ccccc1)Nc1ccccc1 | – | 31.6 | 50.1 | – | –
7 | O=C(c1ccccc1-c1ccccc1)N1CCCC[C@H]1CCOc1ccc(F)cc1F | – | 0.794 | 0.158 | – | –
